Some results are limits rather than exact numbers.

For orientation: IC50 means the concentration that inhibits the measured activity by half. Lower therefore signals greater potency.

Chain of human ERK-2 (Mitogen Activated Kinase 1) (P28482 8-360): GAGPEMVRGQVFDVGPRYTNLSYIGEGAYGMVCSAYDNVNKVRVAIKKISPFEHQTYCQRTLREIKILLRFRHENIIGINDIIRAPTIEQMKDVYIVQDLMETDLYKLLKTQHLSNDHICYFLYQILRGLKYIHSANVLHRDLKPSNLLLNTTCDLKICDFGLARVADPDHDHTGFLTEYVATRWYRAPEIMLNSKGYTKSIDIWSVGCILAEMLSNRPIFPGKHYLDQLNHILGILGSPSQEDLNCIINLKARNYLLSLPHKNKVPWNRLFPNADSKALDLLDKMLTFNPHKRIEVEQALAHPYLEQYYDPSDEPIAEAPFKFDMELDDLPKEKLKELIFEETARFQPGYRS

This assay addresses human ERK-2 (Mitogen Activated Kinase 1) (Homo sapiens (Human), UniProt P28482). The assay is described as follows: ERK-2 Enzymatic Assay. It is filed as biochemical. Particulars: human ERK-2 enzyme 5 nM, 25 μM ATP, S/T17 peptide substrate; isomer = configuration of CR2R3. The essentials:
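Recombinant human ERK-2 (aa 8-360, N-terminal 6-His, E. coli) with 3-fold serially diluted compound. Per-well rates from linear fits converted to percent of control; IC50 by four-parameter fit.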
The compound `COc1ccc(C[C@H]2CC(=O)N(C)c3cc(-c4ccnc(Nc5ccnn5C)n4)cc4nnc2n34)cc1` [(S) I-62, 9-(4-methoxybenzyl)-6-methyl-4-(2-((1-methyl-1H-pyrazol-5-yl)amino)pyrimidin-4-yl)-8,9-dihydro-1,2,2a^1,6-tetraazabenzo[cd]azulen-7(6H)-one] showed an IC50 of 44 nM.
In the case of `CCC[C@H]1CC(=O)N(C)c2cc(-c3ccnc(Nc4ccnn4C)n3)cc3nnc1n23` [(S) I-64, 6-methyl-4-(2-((1-methyl-1H-pyrazol-5-yl)amino)pyrimidin-4-yl)-9-propyl-8,9-dihydro-1,2,2a^1,6-tetraazabenzo[cd]azulen-7(6H)-one], the IC50 worked out at 0.149 nM.
The result for `CN1C(=O)C[C@@H](C2CC2)c2nnc3cc(-c4ccnc(Nc5ccnn5C)n4)cc1n23` [(S) I-65, 9-cyclopropyl-6-methyl-4-(2-((1-methyl-1H-pyrazol-5-yl)amino)pyrimidin-4-yl)-8,9-dihydro-1,2,2a^1,6-tetraazabenzo[cd]azulen-7(6H)-one] reads 119 nM.
`Cn1nccc1Nc1nccc(-c2cc3n4c(nnc4c2)[C@@H](Oc2ccc(F)cc2)CCO3)n1` [(S) I-66, 4-(9-(4-fluorophenoxy)-8,9-dihydro-7H-6-oxa-1,2,2a^1-triazabenzo[cd]azulen-4-yl)-N-(1-methyl-1H-pyrazol-5-yl)pyrimidin-2-amine] registered an IC50 of 0.02 nM.
To `CN1C(=O)C[C@@H](CC(F)(F)F)c2nnc3cc(-c4ccnc(Nc5ccnn5C)n4)cc1n23` [(S) I-71, 6-methyl-4-(2-((1-methyl-1H-pyrazol-5-yl)amino)pyrimidin-4-yl)-9-(2,2,2-trifluoroethyl)-8,9-dihydro-1,2,2a^1,6-tetraazabenzo[cd]azulen-7(6H)-one] belongs 189 nM; to `COc1ccc(C[C@H]2CC(=O)N(C)c3cc(-c4ccnc(Nc5ccnn5C)c4)cc4nnc2n34)c(F)c1` [(S) I-74, 9-(2-fluoro-4-methoxybenzyl)-6-methyl-4-(2-((1-methyl-1H-pyrazol-5-yl)amino)pyridin-4-yl)-8,9-dihydro-1,2,2a^1,6-tetraazabenzo[cd]azulen-7(6H)-one], 2.85 nM; to `CC(C)C[C@H]1CC(=O)N(C)c2cc(-c3ccnc(Nc4ccnn4C)c3)cc3nnc1n23` [(S) I-75, 9-isobutyl-6-methyl-4-(2-((1-methyl-1H-pyrazol-5-yl)amino)pyridin-4-yl)-8,9-dihydro-1,2,2a^1,6-tetraazabenzo[cd]azulen-7(6H)-one], 718 nM.
To `Cn1nccc1Nc1nccc(-c2cc3n4c(nnc4c2)[C@@H](Oc2cncc(Cl)c2)CCO3)n1` [(S) I-77, 4-(9-((5-chloropyridin-3-yl)oxy)-8,9-dihydro-7H-6-oxa-1,2,2a^1-triazabenzo[cd]azulen-4-yl)-N-(1-methyl-1H-pyrazol-5-yl)pyrimidin-2-amine] belongs below 0.02 nM; to `Cn1nccc1Nc1cc(-c2cc3n4c(nnc4c2)[C@@H](Oc2cncc(Cl)c2)CCO3)ccn1` [(S) I-78, 4-(9-((5-chloropyridin-3-yl)oxy)-8,9-dihydro-7H-6-oxa-1,2,2a^1-triazabenzo[cd]azulen-4-yl)-N-(1-methyl-1H-pyrazol-5-yl)pyridin-2-amine], below 0.02 nM; to `Cn1nccc1Nc1nccc(-c2cc3n4c(nnc4c2)[C@H](Cc2ccc(F)c(Cl)c2)CO3)n1` [(S) I-82, 4-(3-(3-chloro-4-fluorobenzyl)-3,4-dihydro-5-oxa-1,2,2a^1-triazaacenaphthylen-7-yl)-N-(1-methyl-1H-pyrazol-5-yl)pyrimidin-2-amine], 12.4 nM.
Compound `CN1C(=O)C[C@H](Cc2ccc(Cl)cn2)c2nnc3cc(-c4ccnc(Nc5ccnn5C)n4)cc1n23` [(S) I-84, 9-((5-chloropyridin-2-yl)methyl)-6-methyl-4-(2-((1-methyl-1H-pyrazol-5-yl)amino)pyrimidin-4-yl)-8,9-dihydro-1,2,2a^1,6-tetraazabenzo[cd]azulen-7(6H)-one] had an IC50 of 32.7 nM.
To `COc1ccc(C[C@H]2CC(=O)N(C)c3cc(-c4ccnc(Nc5ccnn5C)n4)cc4nnc2n34)c(F)c1` [(S) I-85, 9-(2-fluoro-4-methoxybenzyl)-6-methyl-4-(2-((1-methyl-1H-pyrazol-5-yl)amino)pyrimidin-4-yl)-8,9-dihydro-1,2,2a^1,6-tetraazabenzo[cd]azulen-7(6H)-one] belongs 25.9 nM; to `CC(C)[C@@H]1CC(=O)N(C)c2cc(-c3ccnc(Nc4ccnn4C)c3)cc3nnc1n23` [(S) I-87, 9-isopropyl-6-methyl-4-(2-((1-methyl-1H-pyrazol-5-yl)amino)pyridin-4-yl)-8,9-dihydro-1,2,2a^1,6-tetraazabenzo[cd]azulen-7(6H)-one], 1000 nM.
To `Cn1nccc1Nc1nccc(-c2cc3n4c(nnc4c2)[C@H](Cc2cccc(Cl)c2)CO3)n1` [(S) I-88, 4-(3-(3-chlorobenzyl)-3,4-dihydro-5-oxa-1,2,2a^1-triazaacenaphthylen-7-yl)-N-(1-methyl-1H-pyrazol-5-yl)pyrimidin-2-amine] belongs 6.36 nM.
Consider `Cn1nccc1Nc1cc(-c2cc3n4c(nnc4c2)[C@H](Cn2cc(C(F)(F)F)cn2)CCO3)ccn1` [(S) I-89, N-(1-methyl-1H-pyrazol-5-yl)-4-(9-((4-(trifluoromethyl)-1H-pyrazol-1-yl)methyl)-8,9-dihydro-7H-6-oxa-1,2,2a^1-triazabenzo[cd]azulen-4-yl)pyridin-2-amine], for which the IC50 worked out at 2.31 nM.
To `Cn1nccc1Nc1nccc(-c2cc3n4c(nnc4c2)[C@@H](Oc2ccccc2)CCO3)n1` [(S) I-90, N-(1-methyl-1H-pyrazol-5-yl)-4-(9-phenoxy-8,9-dihydro-7H-6-oxa-1,2,2a^1-triazabenzo[cd]azulen-4-yl)pyrimidin-2-amine] belongs below 0.02 nM; to `Cn1nccc1Nc1nccc(-c2cc3n4c(nnc4c2)[C@@H](Oc2cncc(F)c2)CCO3)n1` [(S) I-91, 4-(9-((5-fluoropyridin-3-yl)oxy)-8,9-dihydro-7H-6-oxa-1,2,2a^1-triazabenzo[cd]azulen-4-yl)-N-(1-methyl-1H-pyrazol-5-yl)pyrimidin-2-amine], 0.035 nM; to `Cc1cc(C[C@@H]2CCOc3cc(-c4ccnc(Nc5ccnn5C)n4)cc4nnc2n34)on1` [(S) I-93, N-(1-methyl-1H-pyrazol-5-yl)-4-(9-((3-methylisoxazol-5-yl)methyl)-8,9-dihydro-7H-6-oxa-1,2,2a^1-triazabenzo[cd]azulen-4-yl)pyrimidin-2-amine], 18.2 nM.
The result for `COc1cccc(C[C@@H]2COc3cc(-c4ccnc(Nc5ccnn5C)c4)cc4nnc2n34)c1` [(S) I-97, 4-(3-(3-methoxybenzyl)-3,4-dihydro-5-oxa-1,2,2a^1-triazaacenaphthylen-7-yl)-N-(1-methyl-1H-pyrazol-5-yl)pyridin-2-amine] reads 0.794 nM; that for `Cn1nccc1Nc1nccc(-c2cc3n4c(nnc4c2)[C@@H](CCC(F)(F)F)CCO3)n1` [(S) I-102, N-(1-methyl-1H-pyrazol-5-yl)-4-(9-(3,3,3-trifluoropropyl)-8,9-dihydro-7H-6-oxa-1,2,2a^1-triazabenzo[cd]azulen-4-yl)pyrimidin-2-amine], 0.025 nM; that for `CCC[C@H]1CCOc2cc(-c3ccnc(Nc4ccnn4C)c3)cc3nnc1n23` [(S) I-103, N-(1-methyl-1H-pyrazol-5-yl)-4-(9-propyl-8,9-dihydro-7H-6-oxa-1,2,2a^1-triazabenzo[cd]azulen-4-yl)pyridin-2-amine], 0.026 nM.
The result for `CCC[C@H]1CCOc2cc(-c3ccnc(Nc4ccnn4C)n3)cc3nnc1n23` [(S) I-104, N-(1-methyl-1H-pyrazol-5-yl)-4-(9-propyl-8,9-dihydro-7H-6-oxa-1,2,2a^1-triazabenzo[cd]azulen-4-yl)pyrimidin-2-amine] reads below 0.02 nM.
`CC(C)C[C@H]1CCOc2cc(-c3ccnc(Nc4ccnn4C)n3)cc3nnc1n23` [(S) I-107, 4-(9-isobutyl-8,9-dihydro-7H-6-oxa-1,2,2a^1-triazabenzo[cd]azulen-4-yl)-N-(1-methyl-1H-pyrazol-5-yl)pyrimidin-2-amine] showed an IC50 of 0.023 nM.
`Cn1nccc1Nc1nccc(-c2cc3n4c(nnc4c2)[C@@H](Oc2ccc(F)cc2)CCO3)n1` [(S) I-108, 4-(9-(4-fluorophenoxy)-8,9-dihydro-7H-6-oxa-1,2,2a^1-triazabenzo[cd]azulen-4-yl)-N-(1-methyl-1H-pyrazol-5-yl)pyrimidin-2-amine] had an IC50 below 0.02 nM.
To `Clc1cnn(C[C@@H]2CCOc3cc(-c4ccnc(NC5CCOCC5)n4)cc4nnc2n34)c1` [(S) I-110, 4-(9-((4-chloro-1H-pyrazol-1-yl)methyl)-8,9-dihydro-7H-6-oxa-1,2,2a^1-triazabenzo[cd]azulen-4-yl)-N-(tetrahydro-2H-pyran-4-yl)pyrimidin-2-amine] belongs 0.14 nM; to `Cn1nccc1Nc1nccc(-c2cc3n4c(nnc4c2)[C@@H](Oc2ccc(F)c(F)c2)CCO3)n1` [(S) I-111, 4-(9-(3,4-difluorophenoxy)-8,9-dihydro-7H-6-oxa-1,2,2a^1-triazabenzo[cd]azulen-4-yl)-N-(1-methyl-1H-pyrazol-5-yl)pyrimidin-2-amine], below 0.02 nM.
To `CC(C)[C@H]1CNc2cc(-c3ccnc(Nc4ccnn4C)n3)cc3nnc1n23` [Compound I-3, S-4-(3-isopropyl-4,5-dihydro-3H-1,2,2a^1,5-tetraazaacenaphthylen-7-yl)-N-(1-methyl-1H-pyrazol-5-yl)pyrimidin-2-amine] belongs 0.039 nM; to `CN1C(=O)N[C@H](Cc2ccc(Cl)cc2)c2nnc3cc(-c4ccnc(Nc5ccnn5C)n4)cc1n23` [Compound I-6, (R)-9-(4-chlorobenzyl)-6-methyl-4-(2-((1-methyl-1H-pyrazol-5-yl)amino)pyrimidin-4-yl)-8,9-dihydro-1,2,2a^1,6,8-pentaazabenzo[cd]azulen-7(6H)-one], 0.023 nM; to `CC(C)C[C@@H]1c2nnc3cc(-c4ccnc(Nc5ccnn5C)n4)cc(n23)N(C)C(=O)N1C` [Compound I-19, (R)-9-isobutyl-6,8-dimethyl-4-(2-((1-methyl-1H-pyrazol-5-yl)amino)pyrimidin-4-yl)-8,9-dihydro-1,2,2a^1,6,8-pentaazabenzo[cd]azulen-7(6H)-one], 1.15 nM.
